≈ marks a conversion by molar mass, not a printed value. Bridge positions count the residues as written; N and C are the ends. Square brackets hold non-standard residues; d marks the D form. Peptide text beside a SMILES is read from it. I, II: the chains in the order shown. * marks the point of attachment. ξ: configuration not given here. Lauroyl = CCCCCCCCCCCC(=O)*; Decanoyl = CCCCCCCCCC(=O)*; Octanoyl = CCCCCCCC(=O)*; Hexanoyl = CCCCCC(=O)*; ξK = NCCCCC(N)C(=O)O; Butyryl = CCCC(=O)*
How the values were obtained:
Staphylococcus aureus = test: Antibacterial activity against Staphylococcus aureus ATCC 25923 assessed as reduction in bacterial cell growth incubated for 16 to 24 hrs by CLSI-protocol based Mueller-Hinton Broth micro-dilution method; assay type: functional; settings: time 16-24 hrs
Bacillus subtilis = test: Antibacterial activity against Bacillus subtilis ATCC 23857 assessed as reduction in bacterial cell growth incubated for 16 to 24 hrs by CLSI-protocol based Mueller-Hinton Broth micro-dilution method; assay type: functional; settings: time 16-24 hrs
Escherichia coli = test: Antibacterial activity against Escherichia coli ATCC 25922 assessed as reduction in bacterial cell growth incubated for 16 to 24 hrs by CLSI-protocol based Mueller-Hinton Broth micro-dilution method; assay type: functional; settings: time 16-24 hrs
Pseudomonas aeruginosa = test: Antibacterial activity against Pseudomonas aeruginosa ATCC 27853 assessed as reduction in bacterial cell growth incubated for 16 to 24 hrs by CLSI-protocol based Mueller-Hinton Broth micro-dilution method; assay type: functional; settings: time 16-24 hrs
Klebsiella pneumoniae = test: Antibacterial activity against Klebsiella pneumoniae ATCC 700603 assessed as reduction in bacterial cell growth incubated for 16 to 24 hrs by CLSI-protocol based Mueller-Hinton Broth micro-dilution method; assay type: functional; settings: time 16-24 hrs
Erythrocyte = test: Hemolytic activity in human erythrocyte incubated for 70 mins by absorbance based assay; assay type: toxicity, cell-based; settings: 1.167 h

SMILES | MIC (Staphylococcus aureus) [µM] | MIC (Bacillus subtilis) [µM] | MIC (Escherichia coli) [µM] | MIC (Pseudomonas aeruginosa) [µM] | MIC (Klebsiella pneumoniae) [µM] | HC10 (Erythrocyte) [µM]
CCCC(=O)NCC(=O)N[C@@H](CC(C)C)C(=O)N[C@@H](CC(C)C)C(=O)N[C@@H](CCCCN)C(=O)N[C@@H](CCCNC(=N)N)C(=O)N[C@H](C(=O)N[C@@H](CCCCN)C(=O)N[C@H](C(=O)N[C@@H](CC(C)C)C(=O)N[C@@H](CC(C)C)C(N)=O)[C@@H](C)O)[C@@H](C)CC (Butyryl-GLLKRIKTLL-NH2) | 256 (≈ 313 µg/mL) | 256 (≈ 313 µg/mL) | 256 (≈ 313 µg/mL) | 64 (≈ 78.3 µg/mL) | 256 (≈ 313 µg/mL) | > 256
CCCCCCCCCC(=O)NCC(=O)N[C@@H](CC(C)C)C(=O)N[C@@H](CC(C)C)C(=O)N[C@@H](CCCCN)C(=O)N[C@@H](CCCNC(=N)N)C(=O)N[C@H](C(=O)N[C@@H](CCCCN)C(=O)N[C@H](C(=O)N[C@@H](CC(C)C)C(=O)N[C@@H](CC(C)C)C(N)=O)[C@@H](C)O)[C@@H](C)CC (Decanoyl-GLLKRIKTLL-NH2) | 8 (≈ 10.5 µg/mL) | 8 (≈ 10.5 µg/mL) | 16 (≈ 20.9 µg/mL) | 8 (≈ 10.5 µg/mL) | 16 (≈ 20.9 µg/mL) | 16.36
CCCCCC(=O)NCC(=O)N[C@@H](CC(C)C)C(=O)N[C@@H](CC(C)C)C(=O)N[C@@H](CCCCN)C(=O)N[C@@H](CCCNC(=N)N)C(=O)N[C@H](C(=O)N[C@@H](CCCCN)C(=O)N[C@H](C(=O)N[C@@H](CC(C)C)C(=O)N[C@@H](CC(C)C)C(N)=O)[C@@H](C)O)[C@@H](C)CC (Hexanoyl-GLLKRIKTLL-NH2) | 64 (≈ 80.1 µg/mL) | 16 (≈ 20 µg/mL) | 128 (≈ 160 µg/mL) | 16 (≈ 20 µg/mL) | 128 (≈ 160 µg/mL) | > 256
CCCC(=O)NCC(=O)N[C@@H](CC(C)C)C(=O)N[C@@H](CC(C)C)C(=O)N[C@@H](CCCCN)C(=O)N[C@@H](CCCNC(=N)N)C(=O)N[C@H](C(=O)N[C@@H](CCCCN)C(=O)N[C@H](C(=O)N[C@@H](CC(C)C)C(=O)N[C@@H](CC(C)C)C(=O)NCCCCC(NC(=O)[C@H](CC(C)C)NC(=O)[C@H](CC(C)C)NC(=O)[C@@H](NC(=O)[C@H](CCCCN)NC(=O)[C@@H](NC(=O)[C@H](CCCNC(=N)N)NC(=O)[C@H](CCCCN)NC(=O)[C@H](CC(C)C)NC(=O)[C@H](CC(C)C)NC(=O)CNC(=O)CCC)[C@@H](C)CC)[C@@H](C)O)C(N)=O)[C@@H](C)O)[C@@H](C)CC (stereo not given in full) (I: Butyryl-GLLKRIKTLL[ξK]-NH2 / II: Butyryl-GLLKRIKTLL; amide I:11-II:C) | 8 (≈ 20.5 µg/mL) | 4 (≈ 10.2 µg/mL) | 4 (≈ 10.2 µg/mL) | 8 (≈ 20.5 µg/mL) | 8 (≈ 20.5 µg/mL) | 27.61
CCCCCCCCCC(=O)NCC(=O)N[C@@H](CC(C)C)C(=O)N[C@@H](CC(C)C)C(=O)N[C@@H](CCCCN)C(=O)N[C@@H](CCCNC(=N)N)C(=O)N[C@H](C(=O)N[C@@H](CCCCN)C(=O)N[C@H](C(=O)N[C@@H](CC(C)C)C(=O)N[C@@H](CC(C)C)C(=O)NCCCC[C@H](NC(=O)[C@H](CCCCNC(=O)[C@H](CC(C)C)NC(=O)[C@H](CC(C)C)NC(=O)[C@@H](NC(=O)[C@H](CCCCN)NC(=O)[C@@H](NC(=O)[C@H](CCCNC(=N)N)NC(=O)[C@H](CCCCN)NC(=O)[C@H](CC(C)C)NC(=O)[C@H](CC(C)C)NC(=O)CNC(=O)CCCCCCCCC)[C@@H](C)CC)[C@@H](C)O)NC(=O)[C@H](CC(C)C)NC(=O)[C@H](CC(C)C)NC(=O)[C@@H](NC(=O)[C@H](CCCCN)NC(=O)[C@@H](NC(=O)[C@H](CCCNC(=N)N)NC(=O)[C@H](CCCCN)NC(=O)[C@H](CC(C)C)NC(=O)[C@H](CC(C)C)NC(=O)CNC(=O)CCCCCCCCC)[C@@H](C)CC)[C@@H](C)O)C(N)=O)[C@@H](C)O)[C@@H](C)CC (I: Decanoyl-GLLKRIKTLLKK-NH2 / II: Decanoyl-GLLKRIKTLL / III: Decanoyl-GLLKRIKTLL; amide I:11-III:C, I:12-II:C) |  |  |  |  |  | 146.63
CCCCCCCCCC(=O)NCC(=O)N[C@@H](CC(C)C)C(=O)N[C@@H](CC(C)C)C(=O)N[C@@H](CCCCN)C(=O)N[C@@H](CCCNC(=N)N)C(=O)N[C@H](C(=O)N[C@@H](CCCCN)C(=O)N[C@H](C(=O)N[C@@H](CC(C)C)C(=O)N[C@@H](CC(C)C)C(=O)NCCCCC(NC(=O)[C@H](CC(C)C)NC(=O)[C@H](CC(C)C)NC(=O)[C@@H](NC(=O)[C@H](CCCCN)NC(=O)[C@@H](NC(=O)[C@H](CCCNC(=N)N)NC(=O)[C@H](CCCCN)NC(=O)[C@H](CC(C)C)NC(=O)[C@H](CC(C)C)NC(=O)CNC(=O)CCCCCCCCC)[C@@H](C)CC)[C@@H](C)O)C(N)=O)[C@@H](C)O)[C@@H](C)CC (stereo not given in full) (I: Decanoyl-GLLKRIKTLL[ξK]-NH2 / II: Decanoyl-GLLKRIKTLL; amide I:11-II:C) | 256 (≈ 698 µg/mL) | 256 (≈ 698 µg/mL) | 64 (≈ 175 µg/mL) | 256 (≈ 698 µg/mL) | 128 (≈ 349 µg/mL) | 26.56
CC[C@H](C)[C@H](NC(=O)[C@H](CCCNC(=N)N)NC(=O)[C@H](CCCCN)NC(=O)[C@H](CC(C)C)NC(=O)[C@H](CC(C)C)NC(=O)CN)C(=O)N[C@@H](CCCCN)C(=O)N[C@H](C(=O)N[C@@H](CC(C)C)C(=O)N[C@@H](CC(C)C)C(=O)NCCCC[C@H](NC(=O)[C@H](CCCCNC(=O)[C@H](CC(C)C)NC(=O)[C@H](CC(C)C)NC(=O)[C@@H](NC(=O)[C@H](CCCCN)NC(=O)[C@@H](NC(=O)[C@H](CCCNC(=N)N)NC(=O)[C@H](CCCCN)NC(=O)[C@H](CC(C)C)NC(=O)[C@H](CC(C)C)NC(=O)CN)[C@@H](C)CC)[C@@H](C)O)NC(=O)[C@H](CC(C)C)NC(=O)[C@H](CC(C)C)NC(=O)[C@@H](NC(=O)[C@H](CCCCN)NC(=O)[C@@H](NC(=O)[C@H](CCCNC(=N)N)NC(=O)[C@H](CCCCN)NC(=O)[C@H](CC(C)C)NC(=O)[C@H](CC(C)C)NC(=O)CN)[C@@H](C)CC)[C@@H](C)O)C(N)=O)[C@@H](C)O (I: H-GLLKRIKTLLKK-NH2 / II: H-GLLKRIKTLL / III: H-GLLKRIKTLL; amide I:11-III:C, I:12-II:C) |  |  |  |  |  | 2.53
CCCCCC(=O)NCC(=O)N[C@@H](CC(C)C)C(=O)N[C@@H](CC(C)C)C(=O)N[C@@H](CCCCN)C(=O)N[C@@H](CCCNC(=N)N)C(=O)N[C@H](C(=O)N[C@@H](CCCCN)C(=O)N[C@H](C(=O)N[C@@H](CC(C)C)C(=O)N[C@@H](CC(C)C)C(=O)NCCCC[C@H](NC(=O)[C@H](CCCCNC(=O)[C@H](CC(C)C)NC(=O)[C@H](CC(C)C)NC(=O)[C@@H](NC(=O)[C@H](CCCCN)NC(=O)[C@@H](NC(=O)[C@H](CCCNC(=N)N)NC(=O)[C@H](CCCCN)NC(=O)[C@H](CC(C)C)NC(=O)[C@H](CC(C)C)NC(=O)CNC(=O)CCCCC)[C@@H](C)CC)[C@@H](C)O)NC(=O)[C@H](CC(C)C)NC(=O)[C@H](CC(C)C)NC(=O)[C@@H](NC(=O)[C@H](CCCCN)NC(=O)[C@@H](NC(=O)[C@H](CCCNC(=N)N)NC(=O)[C@H](CCCCN)NC(=O)[C@H](CC(C)C)NC(=O)[C@H](CC(C)C)NC(=O)CNC(=O)CCCCC)[C@@H](C)CC)[C@@H](C)O)C(N)=O)[C@@H](C)O)[C@@H](C)CC (I: Hexanoyl-GLLKRIKTLLKK-NH2 / II: Hexanoyl-GLLKRIKTLL / III: Hexanoyl-GLLKRIKTLL; amide I:11-III:C, I:12-II:C) |  |  |  |  |  | 0.71
CCCCCCCCCCCC(=O)NCC(=O)N[C@@H](CC(C)C)C(=O)N[C@@H](CC(C)C)C(=O)N[C@@H](CCCCN)C(=O)N[C@@H](CCCNC(=N)N)C(=O)N[C@H](C(=O)N[C@@H](CCCCN)C(=O)N[C@H](C(=O)N[C@@H](CC(C)C)C(=O)N[C@@H](CC(C)C)C(=O)NCCCC[C@H](NC(=O)[C@H](CCCCNC(=O)[C@H](CC(C)C)NC(=O)[C@H](CC(C)C)NC(=O)[C@@H](NC(=O)[C@H](CCCCN)NC(=O)[C@@H](NC(=O)[C@H](CCCNC(=N)N)NC(=O)[C@H](CCCCN)NC(=O)[C@H](CC(C)C)NC(=O)[C@H](CC(C)C)NC(=O)CNC(=O)CCCCCCCCCCC)[C@@H](C)CC)[C@@H](C)O)NC(=O)[C@H](CC(C)C)NC(=O)[C@H](CC(C)C)NC(=O)[C@@H](NC(=O)[C@H](CCCCN)NC(=O)[C@@H](NC(=O)[C@H](CCCNC(=N)N)NC(=O)[C@H](CCCCN)NC(=O)[C@H](CC(C)C)NC(=O)[C@H](CC(C)C)NC(=O)CNC(=O)CCCCCCCCCCC)[C@@H](C)CC)[C@@H](C)O)C(N)=O)[C@@H](C)O)[C@@H](C)CC (I: Lauroyl-GLLKRIKTLLKK-NH2 / II: Lauroyl-GLLKRIKTLL / III: Lauroyl-GLLKRIKTLL; amide I:11-III:C, I:12-II:C) |  |  |  |  |  | 103.52
CCCCCCCC(=O)NCC(=O)N[C@@H](CC(C)C)C(=O)N[C@@H](CC(C)C)C(=O)N[C@@H](CCCCN)C(=O)N[C@@H](CCCNC(=N)N)C(=O)N[C@H](C(=O)N[C@@H](CCCCN)C(=O)N[C@H](C(=O)N[C@@H](CC(C)C)C(=O)N[C@@H](CC(C)C)C(=O)NCCCC[C@H](NC(=O)[C@H](CCCCNC(=O)[C@H](CC(C)C)NC(=O)[C@H](CC(C)C)NC(=O)[C@@H](NC(=O)[C@H](CCCCN)NC(=O)[C@@H](NC(=O)[C@H](CCCNC(=N)N)NC(=O)[C@H](CCCCN)NC(=O)[C@H](CC(C)C)NC(=O)[C@H](CC(C)C)NC(=O)CNC(=O)CCCCCCC)[C@@H](C)CC)[C@@H](C)O)NC(=O)[C@H](CC(C)C)NC(=O)[C@H](CC(C)C)NC(=O)[C@@H](NC(=O)[C@H](CCCCN)NC(=O)[C@@H](NC(=O)[C@H](CCCNC(=N)N)NC(=O)[C@H](CCCCN)NC(=O)[C@H](CC(C)C)NC(=O)[C@H](CC(C)C)NC(=O)CNC(=O)CCCCCCC)[C@@H](C)CC)[C@@H](C)O)C(N)=O)[C@@H](C)O)[C@@H](C)CC (I: Octanoyl-GLLKRIKTLLKK-NH2 / II: Octanoyl-GLLKRIKTLL / III: Octanoyl-GLLKRIKTLL; amide I:11-III:C, I:12-II:C) |  |  |  |  |  | 59.73
